Experimental data as given in patent publication US20240009182A1, “REPURPOSED COMPOUND AS THERAPEUTIC FOR HPV-ASSOCIATED CANCERS” (The Chinese University of Hong Kong, priority 2022, published 2024).

What was measured:
[1] = test system: HPV16 E7 protein in CaSki cells; test: HPV16 E7 protein level by western blotting in treated CaSki cells; assay type: cell-based; details: for E7 protein level after inhibitor treatment: 24-hr treatment
From the text: FIG. 1A. The representative immunoblots showing the level of HPV16 E7 constitutively expressed in CaSki cells upon treatment with inhibitors specific for USP7 (P5091, FT671, GNE-6776 and HBX 19818) and that targeting pan-USPs (PR-619) at the indicated concentrations. DMSO served as a vehicle control treatment. Cells were then collected and lysed, the levels of USP7 and HPV16 E7 proteins were detected using the respective specific antibodies. Beta-actin (β-actin) was included as a loading control. KDa: kilodalton. FIG. 1B. The bar chart showing the relative protein level of HPV16 E7 normalized by β-actin (n=3). Data are expressed as mean±standard error of the mean (SEM); Right panel showing the images at 100× magnification of the morphology of the CaSki cells treated with P5091, FT671, GNE-6776, HBX 19818 and PR-619 at concentrations indicated. FIG. 1C. The immunoblots showing the levels of USP7 and HPV16 E7 proteins in CaSki and C-33A (an HPV-null cervical cancer cell line) upon downregulation of USP7 using siRNA targeting specifically against human USP7. FIG. 1D. The immunoblots showing the protein level of HPV16 E7 treated with different concentrations of HBX 19818. CaSki cells were treated with different concentrations of HBX 19818 or DMSO as indicated. Total cell lysates were subjected to western blotting using USP7, β-actin and HPV16 E7 specific antibodies. FIG. 1E. The bar chart showing the relative protein level of HPV16 E7 treated with different concentrations of HBX 19818 normalized by β-actin (n=3). Data are expressed as mean±SEM. FIG. 1F. The curve chart showing the level of E7 protein with increasing concentrations of HBX 19818 treatment. The percentage of HPV16 E7 protein level was analyzed using the non-linear regression function in GraphPad™ Prism 9. Error bars show standard errors of the mean (SEM). *: P<0.05; […]***: P<0.001.
Firstly, we screened four USP7-specific inhibitors (P5091, FT671. GNE-6776, and HBX 19818) and 1 pan-USPs inhibitor (PR-619) to characterize their inhibitory effect on E7 expression in HPV-containing cancer cells. We treated CaSki (HPV16-positive) cancer cells with P5091 at 5 μM and 10 μM; FT671, GNE-6776 and PR-619 at 3 μM and 15 μM; as well as HBX 19818 at 3 μM and 6 μM. These concentrations were chosen based on the reported IC50 values. After 24-hr treatment, the cells were collected, and total cell lysates were resolved by SDS-PAGE. The expression levels of USP7 and E7 were detected using respective specific antibodies.

[2] = test system: HPV16 E7 protein in CaSki cells; test: Cycloheximide chase assay of E7 stability in CaSki cells; assay type: cell-based; details: 3 μM for 24 hrs, then 10 μg/ml cycloheximide, E7 alone 40.32±0.94 mins
Description: (§1) FIGS. 2A-2C HBX 19818 treatment destabilized the steady-state level of HPV16 E7. FIG. 2A. Immunoblots showing the protein levels of HPV16 E7, endogenous ubiquitin and USP7. CaSki cells were either transfected with expression plasmids pcDNA 3.1 (left panel) or pcDNA:Flag-USP7, treated with 3 μM of HBX 19818. After 24 hr, the cells were treated with 10 μg/ml cycloheximide at different durations, as indicated. As a control, the cells were also treated with 5 μg/ml MG132 (a proteasome inhibitor) for 2 hrs prior to adding cycloheximide. The cells were harvested and subjected to western blotting using the respective specific antibodies as indicated. Beta-actin (β-actin) was included as a loading control. CHX: cycloheximide; KDa: kilodalton. FIG. 2B. The curves showing the level of HPV16 E7 protein when co-overexpressed with USP7 or treated with HBX 19818 at different time points. The stability of HPV16 E7 was analyzed using the one-phase exponential decay function in GraphPad™ Prism 9. Error bars indicate standard error of the mean (SEM). FIG. 2C. […] Data are expressed as mean±SEM. ns: not significant, P>0.05; *: P<0.05.
(§2) We next wanted to assess whether HBX 19818 can reverse USP7-mediated deubiquitination of E7. […] The expression levels of Flag-USP7, endogenous ubiquitin, and E7 were detected using anti-Flag-, ubiquitin- and HPV16 E7-specific antibodies, respectively (FIG. 2A). […]

ubiquitin in CaSki cells = test: Endogenous ubiquitin level by western blotting in CaSki cells; assay type: cell-based, human; details: 3 μM, independent of cycloheximide
Description: as §1, §2

[3] = test system: CaSki (HPV16-positive) cancer cells; test: Cell proliferation, cell counting kit-8 (CCK8) assay, CaSki; assay type: cell-based, human; details: DMSO 10.38±0.90 folds
Description: (§3) FIGS. 3A-3B HBX 19818 inhibited proliferation of CaSki cells, but not SCC25 cells. The growth curves showing the cell proliferation of (FIG. 3A) CaSki (HPV16-positive) and (FIG. 3B) SCC25 (HPV-negative) cancer cells in the presence or absence of HBX 19818. Cell proliferation of CaSki was assessed using cell counting kit 8 (CCK8) assay. Cells were seeded into 96-well plates and incubated with either DMSO (vehicle control) or HBX 19818 at 3 μM or 6 μM for different days as indicated. Optical density (OD) value at 450 nm indicating relative proliferation was measured daily (n=3). Error bars indicate standard error of the mean (SEM).
(§4) We assessed the ability of CaSki (HPV16 positive cells) and SCC25, which are HPV-null cells, to proliferate using a cell counting kit-8 (CCK8) assay. This assay measures the ability of viable cells to metabolize soluble tetrazolium salt (WST-8) to orange formazan, in which the latter can be measured at optical density (OD) of […]. A day prior to drug treatment, CaSki and SCC25 were seeded into each well of 96-well plates at a density of 2000 cells/well in 100 μL of DMEM containing 10% FBS. The cells were treated with either DMSO (vehicle control) or HBX 19818 at 3 μM and 6 μM for 24, 72, and 96 hrs. […] The OD value of the medium at 450 nm was measured using LEDETECT 96 microplate reader (Labexim Products).

[4] = test system: SCC25 (HPV-negative) cancer cells; test: Cell proliferation, cell counting kit-8 (CCK8) assay, SCC25; assay type: cell-based, human; details: DMSO 10.45±0.88 folds
Description: as §3, §4

[5] = test system: CaSki (HPV16-positive) cancer cells; test: Soft agar colony formation assay, CaSki; assay type: cell-based, human; details: 14 days, DMSO 88.17±5.92
Description: (§5) FIGS. 4A-4D HBX 19818 inhibited transformation of CaSki cells, but not SCC25 cells. The representative images showing the whole-well view and morphology of colonies formed by (FIG. 4A) CaSki (HPV16-positive) and (FIG. 4C) SCC25 (HPV-negative) cancer cells. Cells were seeded into 0.35% agarose gel containing DMEM with 10% FBS, and grew for 14 days. The agarose gel was stained with crystal violet, and images were taken using a digital camera. The colony morphology was observed using an optical microscope at 100× magnification. The bar chart comparing the number of colonies of (FIG. 4B) CaSki or (FIG. 4D) SCC25 cells with DMSO or HBX 19818 at concentrations indicated (n=3). Data indicated are mean±standard error of the mean (SEM). *: P<0.05.
(§6) We performed a soft agar colony formation assay to assess the ability of CaSki and SCC25 to grow in an anchorage-independent manner, in the presence or absence of HBX 19818 treatment. CaSki and SCC25 cells were seeded into 0.7% soft agar containing 2×DMEM and 20% FBS. The cells were incubated at 37° C. for 14 days. After a 2-week incubation, the agarose gel was stained with crystal violet. Colonies formed were counted and measured. We observed that CaSki cells treated with DMSO formed a dramatically higher number of colonies (88.17±5.92) than those treated with 6 μM of HBX 19818 (62.67±2.03) (FIGS. 4A and 4B). […]

[6] = test system: SCC25 (HPV-negative) cancer cells; test: Soft agar colony formation assay, SCC25; assay type: cell-based, human; details: SCC25, HBX 19818 versus DMSO, 14 days
Description: as §5, §6

[7] = test system: CaSki (HPV16-positive) cancer cells; test: Wound-healing (migration) assay, CaSki; assay type: cell-based, human; details: 24 hrs, DMSO 98.46%±0.36%
Description: (§7) The representative images showing the cell migration of (FIG. 5A) CaSki (HPV16-positive) and (FIG. 5C) SCC25 (HPV-negative) cancer cells after scratching. Cells were seeded into 12-well plate and scratched when reached 100% confluence, followed by incubation with DMSO (vehicle control) or HBX 19818 at concentrations indicated for 24 hours. Cell migration was observed and recorded using a time-lapse microscope every 6 hours. The bar chart comparing the relative coverage areas of (FIG. 5B) CaSki and (FIG. 5D) SCC25 with DMSO or HBX 19818 (n=3). Data indicated are mean±SEM. *: P<0.05; **: P<0.01.
(§8) We performed a wound-healing assay to ascertain the ability of CaSki and SCC25 cells to migrate under HBX 19818 treatment. Cells were seeded into a 12-well plate and cultured to reach 100% confluency. Cells were then scratched to make artificial wounds on the monolayer of cells and incubated with either DMSO or HBX 19818 at 3 μM or 6 μM. Cells migration was monitored using time-lapse microscopy where images were taken 6-hourly for a duration of 24 hrs.

[8] = test system: SCC25 (HPV-negative) cancer cells; test: Wound-healing (migration) assay, SCC25; assay type: cell-based, human; details: SCC25, HBX 19818 versus DMSO, 24 hrs
Description: as §7, §8

[9] = test system: CaSki (HPV-positive) cancer cells; test: Matrigel invasion assay, CaSki; assay type: cell-based, human; details: 24-hr, DMSO 100%
Description: (§9) FIGS. 6A-6D. […] The representative images showing the cell invasion of (FIG. 6A) CaSki (HPV-positive) and (FIG. 6C) SCC25 (HPV-negative) cancer cells in the presence of DMSO (vehicle control) or HBX 19818 at concentrations indicated. Cells were seeded into the invasion chamber with plain medium, followed by treatment with either DMSO or HBX 19818 for 24 hours. Cell invasion was observed and recorded using an optical microscope at 40× magnification. The bar graph comparing the relative cell invasion ability of (FIG. 6B) CaSki and (FIG. 6D) SCC25 with DMSO or HBX 19818 (n=3). Data indicated are mean±standard error of the mean (SEM). **: P<0.01; ***: P<0.001.
(§10) We next examined the ability of CaSki and SCC25 cells to invade through Matrigel, which mimics the basement membrane. Approximately 5×10^4 of CaSki and SCC25 cells were seeded into the inserts containing serum-free DMEM medium with either DMSO or HBX 19818. We included MCF7, a non-invasive breast cancer cell line as a negative control. DMEM supplemented with 20% FBS was added into the bottom chamber to attract cells to migrate from the upper to the lower surface of the inserts. After 24-hr incubation at 37° C., the non-invasive cells on the upper surface were removed using cotton swabs. Cells on the lower surface were fixed and stained using hematoxylin. […]

[10] = test system: SCC25 (HPV-negative) cancer cells; test: Matrigel invasion assay, SCC25; assay type: cell-based, human; details: SCC25, HBX 19818 versus DMSO, 24-hr
Description: as §9, §10

Molecule | E7 protein level after inhibitor treatment ([1]; 15 μM) | Level of E7 with increasing concentration ([1]; 1.5 μM, 3.0 μM, 6.0 μM and 12.0 μM) | E7 protein level after inhibitor treatment ([1]; 3 μM and 6 μM, triplicate experiments) | IC50 ([1]; non-linear regression, read-out: Concentration sufficient to halve the level of E7 protein) [µM] | Half-life of E7 [2] [min] | Level of ubiquitin (ubiquitin in CaSki cells) | Cell proliferation ability (relative OD 450 nm) ([3]; 3 μM) [folds] | Cell proliferation ability (relative OD 450 nm) ([3]; 6 μM) [folds] | Cell proliferation ability (relative OD 450 nm) ([4]; SCC25, 3 μM) [folds] | Cell proliferation ability (relative OD 450 nm) ([4]; SCC25, 6 μM) [folds] | Number of colonies ([5]; 3 μM) | Number of colonies ([5]; 6 μM) | Number of colonies [6] | Cell migration ability (relative coverage area) ([7]; 3 μM) | Cell migration ability (relative coverage area) ([7]; 6 μM) | Cell migration ability [8] | Relative invasive ability ([9]; 3 μM) | Relative invasive ability ([9]; 6 μM) | Invasive ability [10]
CCc1c(-c2ccc(C(=O)NC)nc2)cnc(N)c1-c1ccc(O)cc1 [GNE-6776] | decreased the E7 protein level drastically |  |  |  |  |  |  |  |  |  |  |  |  |  |  |  |  |  | 
HBX 19818 |  | decreased at a dose-dependent manner | dramatic reduction of E7 protein level | 2.8 | 27.45 ± 0.88 | increased level of ubiquitin | 7.82±1.14 | 4.29±0.31 | 10.12±0.94 | 7.29±1.24 | 74.67±7.99 | 62.67±2.03 | no difference in the number of colonies | 85.58%±4.39% | 53.24%±8.96% | no differences were observed | 30%±2.97% | 13.85%±1.21% | similar
